Source: BigSolDB 2.1

O=[N+]([O-])c1cc[nH]n1
solubility (mole fraction) (in THF, 283.15 K): 0.00254 | solubility (mole fraction) (in THF, 288.15 K): 0.00305 | solubility (mole fraction) (in THF, 293.15 K): 0.00386 | solubility (mole fraction) (in THF, 298.15 K): 0.00456 | solubility (mole fraction) (in THF, 303.15 K): 0.00553 | solubility (mole fraction) (in THF, 308.15 K): 0.00654 | solubility (mole fraction) (in THF, 313.15 K): 0.00761 | solubility (mole fraction) (in THF, 318.15 K): 0.00903 | solubility (mole fraction) (in THF, 323.15 K): 0.0106 | solubility (mole fraction) (in acetone, 283.15 K): 0.0129 | solubility (mole fraction) (in acetone, 288.15 K): 0.0152 | solubility (mole fraction) (in acetone, 293.15 K): 0.0177 | solubility (mole fraction) (in acetone, 298.15 K): 0.0202 | solubility (mole fraction) (in acetone, 303.15 K): 0.0228 | solubility (mole fraction) (in acetone, 308.15 K): 0.0261 | solubility (mole fraction) (in acetone, 313.15 K): 0.0301 | solubility (mole fraction) (in acetone, 318.15 K): 0.0339 | solubility (mole fraction) (in acetone, 323.15 K): 0.0376 | solubility (mole fraction) (in acetonitrile, 283.15 K): 0.0148 | solubility (mole fraction) (in acetonitrile, 288.15 K): 0.017 | solubility (mole fraction) (in acetonitrile, 293.15 K): 0.0195 | solubility (mole fraction) (in acetonitrile, 298.15 K): 0.0223 | solubility (mole fraction) (in acetonitrile, 303.15 K): 0.0254 | solubility (mole fraction) (in acetonitrile, 308.15 K): 0.0289 | solubility (mole fraction) (in acetonitrile, 313.15 K): 0.0327 | solubility (mole fraction) (in acetonitrile, 318.15 K): 0.037 | solubility (mole fraction) (in acetonitrile, 323.15 K): 0.0418 | solubility (mole fraction) (in benzene, 283.15 K): 0.00052 | solubility (mole fraction) (in benzene, 288.15 K): 0.00066 | solubility (mole fraction) (in benzene, 293.15 K): 0.00086 | solubility (mole fraction) (in benzene, 298.15 K): 0.00109 | solubility (mole fraction) (in benzene, 303.15 K): 0.00139 | solubility (mole fraction) (in benzene, 308.15 K): 0.00171 | solubility (mole fraction) (in benzene, 313.15 K): 0.00215 | solubility (mole fraction) (in benzene, 318.15 K): 0.00265 | solubility (mole fraction) (in benzene, 323.15 K): 0.00323 | solubility (mole fraction) (in ethanol, 283.15 K): 0.0254 | solubility (mole fraction) (in ethanol, 288.15 K): 0.0292 | solubility (mole fraction) (in ethanol, 293.15 K): 0.0328 | solubility (mole fraction) (in ethanol, 298.15 K): 0.0364 | solubility (mole fraction) (in ethanol, 303.15 K): 0.041 | solubility (mole fraction) (in ethanol, 308.15 K): 0.0449 | solubility (mole fraction) (in ethanol, 313.15 K): 0.0548 | solubility (mole fraction) (in ethanol, 318.15 K): 0.0599 | solubility (mole fraction) (in ethanol, 323.15 K): 0.0646 | solubility (mole fraction) (in ethyl acetate, 283.15 K): 0.00586 | solubility (mole fraction) (in ethyl acetate, 288.15 K): 0.00728 | solubility (mole fraction) (in ethyl acetate, 293.15 K): 0.00905 | solubility (mole fraction) (in ethyl acetate, 298.15 K): 0.0107 | solubility (mole fraction) (in ethyl acetate, 303.15 K): 0.0133 | solubility (mole fraction) (in ethyl acetate, 308.15 K): 0.0163 | solubility (mole fraction) (in ethyl acetate, 313.15 K): 0.0196 | solubility (mole fraction) (in ethyl acetate, 318.15 K): 0.0236 | solubility (mole fraction) (in ethyl acetate, 323.15 K): 0.0282 | solubility (mole fraction) (in isopropyl acetate, 283.15 K): 0.00234 | solubility (mole fraction) (in isopropyl acetate, 288.15 K): 0.00292 | solubility (mole fraction) (in isopropyl acetate, 293.15 K): 0.00364 | solubility (mole fraction) (in isopropyl acetate, 298.15 K): 0.00456 | solubility (mole fraction) (in isopropyl acetate, 303.15 K): 0.00566 | solubility (mole fraction) (in isopropyl acetate, 308.15 K): 0.00695 | solubility (mole fraction) (in isopropyl acetate, 313.15 K): 0.00849 | solubility (mole fraction) (in isopropyl acetate, 318.15 K): 0.0102 | solubility (mole fraction) (in isopropyl acetate, 323.15 K): 0.0125 | solubility (mole fraction) (in methanol, 283.15 K): 0.00822 | solubility (mole fraction) (in methanol, 288.15 K): 0.0131 | solubility (mole fraction) (in methanol, 293.15 K): 0.017 | solubility (mole fraction) (in methanol, 298.15 K): 0.0208 | solubility (mole fraction) (in methanol, 303.15 K): 0.0256 | solubility (mole fraction) (in methanol, 308.15 K): 0.0338 | solubility (mole fraction) (in methanol, 313.15 K): 0.0455 | solubility (mole fraction) (in methanol, 318.15 K): 0.0605 | solubility (mole fraction) (in methanol, 323.15 K): 0.0854 | solubility (mole fraction) (in methyl acetate, 283.15 K): 0.0083 | solubility (mole fraction) (in methyl acetate, 288.15 K): 0.0102 | solubility (mole fraction) (in methyl acetate, 293.15 K): 0.0125 | solubility (mole fraction) (in methyl acetate, 298.15 K): 0.0149 | solubility (mole fraction) (in methyl acetate, 303.15 K): 0.0178 | solubility (mole fraction) (in methyl acetate, 308.15 K): 0.0209 | solubility (mole fraction) (in methyl acetate, 313.15 K): 0.0244 | solubility (mole fraction) (in methyl acetate, 318.15 K): 0.0282 | solubility (mole fraction) (in methyl acetate, 323.15 K): 0.032 | solubility (mole fraction) (in n-butyl acetate, 283.15 K): 0.00323 | solubility (mole fraction) (in n-butyl acetate, 288.15 K): 0.00423 | solubility (mole fraction) (in n-butyl acetate, 293.15 K): 0.00542 | solubility (mole fraction) (in n-butyl acetate, 298.15 K): 0.00687 | solubility (mole fraction) (in n-butyl acetate, 303.15 K): 0.00865 | solubility (mole fraction) (in n-butyl acetate, 308.15 K): 0.0107 | solubility (mole fraction) (in n-butyl acetate, 313.15 K): 0.0132 | solubility (mole fraction) (in n-butyl acetate, 318.15 K): 0.0159 | solubility (mole fraction) (in n-butyl acetate, 323.15 K): 0.0191 | solubility (mole fraction) (in n-propanol, 283.15 K): 0.0224 | solubility (mole fraction) (in n-propanol, 288.15 K): 0.0255 | solubility (mole fraction) (in n-propanol, 293.15 K): 0.0295 | solubility (mole fraction) (in n-propanol, 298.15 K): 0.0336 | solubility (mole fraction) (in n-propanol, 303.15 K): 0.0384 | solubility (mole fraction) (in n-propanol, 308.15 K): 0.0442 | solubility (mole fraction) (in n-propanol, 313.15 K): 0.0481 | solubility (mole fraction) (in n-propanol, 318.15 K): 0.0551 | solubility (mole fraction) (in n-propanol, 323.15 K): 0.0627 | solubility (mole fraction) (in n-propyl acetate, 283.15 K): 0.00676 | solubility (mole fraction) (in n-propyl acetate, 288.15 K): 0.00793 | solubility (mole fraction) (in n-propyl acetate, 293.15 K): 0.0092 | solubility (mole fraction) (in n-propyl acetate, 298.15 K): 0.0106 | solubility (mole fraction) (in n-propyl acetate, 303.15 K): 0.0123 | solubility (mole fraction) (in n-propyl acetate, 308.15 K): 0.0142 | solubility (mole fraction) (in n-propyl acetate, 313.15 K): 0.0165 | solubility (mole fraction) (in n-propyl acetate, 318.15 K): 0.0193 | solubility (mole fraction) (in n-propyl acetate, 323.15 K): 0.0225 | solubility (mole fraction) (in toluene, 283.15 K): 0.00148 | solubility (mole fraction) (in toluene, 288.15 K): 0.00187 | solubility (mole fraction) (in toluene, 293.15 K): 0.00232 | solubility (mole fraction) (in toluene, 298.15 K): 0.00286 | solubility (mole fraction) (in toluene, 303.15 K): 0.00354 | solubility (mole fraction) (in toluene, 308.15 K): 0.00437 | solubility (mole fraction) (in toluene, 313.15 K): 0.00514 | solubility (mole fraction) (in toluene, 318.15 K): 0.00623 | solubility (mole fraction) (in toluene, 323.15 K): 0.00729 | solubility (mole fraction) (in water, 283.15 K): 0.00032 | solubility (mole fraction) (in water, 288.15 K): 0.0004 | solubility (mole fraction) (in water, 293.15 K): 0.00051 | solubility (mole fraction) (in water, 298.15 K): 0.00065 | solubility (mole fraction) (in water, 303.15 K): 0.00083 | solubility (mole fraction) (in water, 308.15 K): 0.00105 | solubility (mole fraction) (in water, 313.15 K): 0.00133 | solubility (mole fraction) (in water, 318.15 K): 0.0017 | solubility (mole fraction) (in water, 323.15 K): 0.00216
